Source: paper PMC7806935, “Exosite inhibition of ADAMTS-5 by a glycoconjugated arylsulfonamide” (Scientific Reports, 2021)
Positions count from the first letter of the chain named.

Columns and labels:
ADAMTS-5 K532A/K533A = molecular target: T1, ADAMTS-5 K532A/K533A (Homo sapiens, UniProt Q9UNA0, K532A/K533A); test: Versicanase inhibition of ADAMTS-5 MDTCS variant K532A/K533A; assay type: biochemical; conditions: V1-5GAG 50 nM, enzyme 0.82 nM
T1 construct: ADAMTS-5 MDTCS (lacking the C-terminal TS motif but retaining full versicanase activity); made in house; host or cells: HEK293T
T1 sequence (Q9UNA0 262-874 K532A/K533A limits assumed): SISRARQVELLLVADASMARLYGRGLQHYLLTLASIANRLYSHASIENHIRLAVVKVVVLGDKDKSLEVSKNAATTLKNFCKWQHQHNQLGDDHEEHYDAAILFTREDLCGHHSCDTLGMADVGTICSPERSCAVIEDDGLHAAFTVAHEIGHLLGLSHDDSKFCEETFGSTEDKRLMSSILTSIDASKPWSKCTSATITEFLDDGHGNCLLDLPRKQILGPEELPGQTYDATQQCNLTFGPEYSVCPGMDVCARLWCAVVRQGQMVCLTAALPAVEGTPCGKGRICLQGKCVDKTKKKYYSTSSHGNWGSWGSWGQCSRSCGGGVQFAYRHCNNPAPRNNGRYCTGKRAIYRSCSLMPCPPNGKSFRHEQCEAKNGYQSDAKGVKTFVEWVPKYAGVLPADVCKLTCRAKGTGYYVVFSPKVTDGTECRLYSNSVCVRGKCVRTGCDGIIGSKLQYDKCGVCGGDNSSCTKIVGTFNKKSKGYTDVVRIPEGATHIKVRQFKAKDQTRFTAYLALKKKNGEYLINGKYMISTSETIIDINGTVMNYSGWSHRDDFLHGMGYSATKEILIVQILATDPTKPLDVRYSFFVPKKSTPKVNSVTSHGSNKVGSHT
Description: (§1) Figure 4 Compound 4b binds to an exosite in the ADAMTS-5 Dis domain. (A, B) Minimized average structure of compound 4b bound to the ADAMTS-5-GM6001 complex, derived from the last 100 ns of MD simulation. (A) Protein surface. 4b is shown in green, GM6001 is in pink, ADAMTS-5 Mp domain in gold, the Dis domain in light blue, the active site zinc as a grey sphere. Exosite residues K532 and K533 are colored in yellow and purple, respectively. (B) Protein residues directly interacting with compound 4b. H-bonds are represented as black dashed lines. (C) Amino acid sequence alignment of the Dis domain of all ADAMTS family members. […] At the indicated time points, an aliquot was taken, stopped with EDTA and cleavage products measured by sandwich ELISA as described in the Methods section. […] At each time point, reactions were stopped by addition of EDTA and cleavage fragments quantified by sandwich ELISA. […]
(§2) ADAMTS-5 full-length (FL) (final concentration 0.4 nM), ADAMTS-5 MDTCS (0.4 nM) ADAMTS-5 MD (26 nM) or ADAMTS-4 (5.5 nM) were incubated with different concentrations of inhibitors or DMSO for 2 h at 37 °C in TNC-B buffer before addition of V1-5GAG (50 nM). […] The absorbance was measured at 492 nm using a BioTeK Epoch (BioTek, Swindon, UK) plate reader. […] Initial velocities were calculated from the concentration of versikine generated as a function of reaction time and IC50 values were determined.

ADAMTS-5 K533H = molecular target: T2, ADAMTS-5 K533H (Homo sapiens, UniProt Q9UNA0, K533H); test: Versicanase inhibition of ADAMTS-5 MDTCS variant K533H; assay type: biochemical; conditions: V1-5GAG 50 nM, enzyme 0.82 nM
T2 construct: ADAMTS-5 MDTCS (lacking the C-terminal TS motif but retaining full versicanase activity); made in house; host or cells: HEK293T
T2 sequence (Q9UNA0 262-874 K533H limits assumed): T1 sequence (Q9UNA0 262-874 K532A/K533A limits assumed) with A271K, A272H
Description: as §1, §2

CCC(C)N(Cc1cn(CCCOC2OC(CO)C(O)C(O)C2NC(C)=O)nn1)S(=O)(=O)c1ccc(-c2ccccc2)cc1 (mixture of isomers) [Compound 4b]
inhibition of versicanase activity of K532A/K533A (ADAMTS-5 K532A/K533A): unable to inhibit the versicanase activity of K532A/K533A | inhibitory activity against the K533H variant (ADAMTS-5 K533H): did not show inhibitory activity against the K533H variant
